IC50 data for two compounds are collected here from ChEMBL document CHEMBL2440048 (J Med Chem, 2013).

Broadly, the pIC50 is the negative decadic logarithm of the IC50, by convention in mol/L.

A short description of this assay: Inhibition of RyR2 R4496C mutant (unknown origin)-mediated store-overload induced calcium release expressed in HEK293 cells after 8 to 10 mins by fura-2/AM dye-based fluorescence assay. The assay is classed as cell-based. The settings on record: Homo sapiens.

pIC50: −log10 of the molar value.

Take `COc1ccccc1OCCNCC(O)COc1ccc2[nH]cnc2c1` (configuration not stated): the pIC50 is less than 3.00. `COc1ccc2c(c1)N(C)CCCS2`: the pIC50 is less than 3.00.
